Assay results taken from publication PMC11183791, “Vancomycin population pharmacokinetics and dosing proposal for the initial treatment in obese adult patients” (Frontiers in Pharmacology, 2024).
Values after ≈ are worked out from the molar mass of the structure shown.

Key:
[1] = Vancomycin trough serum levels after loading dose with and without the guidance of clinical pharmacists (TDM, KIMS immunoturbidimetry); assay type: in vivo, human
Method: The lower limits of detection and quantitation were 1.5 and 4.0 mg/L, respectively, and the measuring range was from 4.0 to 80.0 mg/L. Only levels measured during initial vancomycin therapy (first 3 days of treatment) were included in the PK analysis. If available, the MIC value of vancomycin for the isolated bacterial strain was also recorded.
Vancomycin t1/2 was calculated from Vd and clearance (CL) values using the following formula: t1/2 = 0.693 × Vd/CL. Descriptive parameter medians and interquartile range (IQR) were calculated using MS Excel 2013 (Microsoft Corporation, Redmond, United States). The Mann–Whitney U-test was used to compare vancomycin loading doses (LDs)with and without the guidance of clinical pharmacists and compare trough levels reached after loading dose administration. The linear regression model was used to evaluate the relationships between vancomycin PK parameters (Vd and CL) and continuous variables (BW, LBM, BSA, BMI, creatinine, and cystatin C-based eGFR). GraphPad Prism software version 8.2.1 (GraphPad Inc., La Jolla, CA, USA) was used for all comparisons, and p-levels <0.05 were considered statistically significant.

[2] = system: isolated bacterial strain (Staphylococcus spp., Enterococcus spp., Klebsiella pneumoniae, Streptococcus agalactiae); settings: isolated bacterial strains of the study patients
[3] = cited from earlier work
[4] = bootstrap analysis, 250 replicates
[5] = obese adults (BMI ≥30 kg/m^2), n = 138, iv infusion, first 3 days of treatment, one-compartment model

SMILES: CN[C@H](CC(C)C)C(=O)N[C@H]1C(=O)N[C@@H](CC(N)=O)C(=O)N[C@H]2C(=O)N[C@H]3C(=O)N[C@H](C(=O)N[C@H](C(=O)O)c4cc(O)cc(O)c4-c4cc3ccc4O)[C@H](O)c3ccc(c(Cl)c3)Oc3cc2cc(c3O[C@@H]2O[C@H](CO)[C@@H](O)[C@H](O)[C@H]2O[C@H]2C[C@](C)(N)[C@H](O)[C@H](C)O2)Oc2ccc(cc2Cl)[C@H]1O [vancomycin, Vancomycin]
- median trough level after LD relative to the recommended therapeutic range (15–20 mg/L) ([1]; LD with the guidance of clinical pharmacists): in
- median trough level after LD relative to the recommended therapeutic range (15–20 mg/L) ([1]; LD without the guidance of clinical pharmacists): out of the recommended therapeutic range
- CL_pop, bootstrap median (95% CI) [4]: 1.27 (1.24–1.31) L/h
- Vd_pop, bootstrap median (95% CI) [4]: 79.3 (77.8–80.9) L
- β_CL_LBM, bootstrap median (95% CI) [4]: 0.011 (0.0108–0.0113) kg
- β_CL_eGFR, bootstrap median (95% CI) [4]: 0.61 (0.60–0.63) mL/s/1.73 m^2
- CL, median (interquartile range) of individual estimates (conditional modes) [5]: 6.65 (4.95–8.42) L/h
- Vd, median (interquartile range) of individual estimates (conditional modes) [5]: 74.0 (70.5–75.4) L
- elimination half-life t1/2, median (interquartile range) of individual estimates (obese adults, n = 138, t1/2 = 0.693 × Vd/CL): 7.7 (6.0–10.0) h
- t1/2 corresponding to estimated CL and Vd of 75 L (patient with LBM of 68 kg and eGFR of 1.51 mL/s/1.73 m^2): 7.4 h
- CL estimated from the final covariate equation (patient with LBM of 68 kg and eGFR of 1.51 mL/s/1.73 m^2 (median values of the study population)): 7 L/h
- Vd_pop, final model estimate (typical value of parameter, final covariate population PK model, obese adults): 75.0 L
- CL_pop, final model estimate (typical value, CL=CL_pop×e^(β_CL_eGFR×eGFR)×e^(β_CL_LBM×LBM)): 1.32 L/h
- MIC, median (min–max) [2]: 1 (≤0.5–2) mg/L
- MIC, modus [2]: 1 µg/mL (≈ 0.69 µM)
- elimination half-life (t1/2) ([3]; can be prolonged in renal insufficiency, ref Rybak, 2006): 6 to 12 h
- distribution half-life ([3]; ref Matzke et al., 1986): approximately 7 min
- distribution phase duration ([3]; ref Matzke et al., 1986): approximately 0.5 h
- absorption after oral administration ([3]; ref Rybak et al., 2009): not absorbed efficiently
- portion of dose excreted unchanged via glomerular filtration ([3]; ref Rybak, 2006): majority
- contribution of the distribution phase to total vancomycin exposure ([3]; ref Shingde et al., 2019): < 10%
